In brackets after ≈: the same amount, converted by molar mass. Where two headings read alike, the source gives them in different places.
Assays:
[1] = test system: Scytalidium dimidiatum; experiment: Antifungal Activity Test 1: MIC by broth microdilution method (Alamar Blue); type: cell-based; conditions: Neoscytalidium dimidiatum; for MIC: growth inhibited by 80% or more, read-out: MIC; for MIC90: concentration to be MIC in 9 strains out of the 10 strains (90%), read-out: MIC90
Description: Scytalidium dimidiatum strain of clinical isolate obtained by separation and identification from nail or stratum corneum of patients with superficial mycosis was used. The fungi pre-cultured on an SDA medium was suspended in 0.1% (w/v) Tween 80-containing sterile saline and the suspension was filtered through gauze to collect arthrospore. This was suspended in 0.1% (w/v) Tween 80-containing sterile saline, and added to a 20% Alamar Blue-containing medium to 2×10^4 cells/mL to give a fungal inoculum solution.
(§1) Each drug was used after dissolving in DMSO (dimethyl sulfoxide).
(§2) The minimum inhibitory concentration (MIC) was measured by a broth microdilution method. That is, RPMI1640 medium (Sigma-Aldrich) was buffered with 0.165 M morpholine propanesulfonic acid (MOPS, Wako Pure Chemical Industries, Ltd.) to pH 7.0, and a given amount of a solution of the drug in DMSO was added thereto to prepare 2-fold dilution series within the range of 0.00098-4 μg/mL. This was added to a 96-well microplate by 100 μL, a fungal inoculum solution (100 μL, final concentration of fungi to be added: 1.0×10^4 cells/mL) was added, and the mixture was cultured at 35° C. An Alamar Blue reagent was added in advance to the culture medium (final addition concentration: 10%) and, at the time point when the Alamar Blue reagent in the drug-free growth control group changed from blue to red, the culture was discontinued and the absorbance (differential optical density at 570 nm based on 590 nm served as reference) measured. The minimum concentration of the drug that inhibited the growth of the fungus in the growth control group by 80% or more was taken as MIC. The concentration to be MIC (MIC90) in 9 strains out of the 10 strains (90%) measured was determined.
Reference documents for measurement method: Takako Shinoda et al.: opinion proposed by Committee for Clinical Laboratory Standards of The Japanese Society for Medical Mycology (1995-1997), Method for antifungal susceptibility testing of filamentous fungus, Medical Mycology Journal, 40: 239-257, 1999. Clinical Laboratory Standards Institute/National Committee for Clinical Laboratory Standards. Reference method for broth dilution antifungal susceptibility testing of filamentous fungus. Approved Standard M38-A2. Wayne, Pa.: National Committee for Clinical Laboratory Standards, 2008. Test Results

[2] = test system: Scytalidium hyalinum; experiment: Antifungal Activity Test 2: MIC by broth microdilution method (Alamar Blue); type: cell-based; conditions: Neoscytalidium hyalinum
Method: as §2
Scytalidium hyalinum strain of clinical isolate available from CBS (Netherlands) was used. The fungus was pre-cultured in an SDA medium, 0.1% (w/v) Tween 80-containing sterile saline was added to give a suspension, which was filtered through gauze to collect arthrospore. This was suspended in 0.1% (w/v) Tween 80-containing sterile saline, and added to a 20% Alamar Blue-containing medium to 2×10^4 cells/mL to give a fungal inoculum solution.
as §1
The test method was the same as in the aforementioned antifungal activity test 1, and the minimum concentration of the drug that inhibited the growth of the fungus in the growth control group by 80% or more was taken as MIC. The MIC range of the 4 strains measured and the geometric mean (GM) of each drug were determined.

[3] = clinical isolate CBS200.88, growth inhibited by 80% or more, read-out: MIC
[4] = clinical isolate CBS545.95, growth inhibited by 80% or more, read-out: MIC
[5] = clinical isolate CBS601.85, growth inhibited by 80% or more, read-out: MIC
[6] = clinical isolate CBS619.84, growth inhibited by 80% or more, read-out: MIC
[7] = geometric mean of the 4 strains measured, read-out: GM (geometric mean of MIC)
[8] = range of the 4 strains measured, read-out: MIC range

SMILES	MIC ([1]; clinical isolate 530129)	MIC ([1]; clinical isolate 530142)	MIC ([1]; clinical isolate 530251)	MIC ([1]; clinical isolate 530621)	MIC ([1]; clinical isolate 530633)	MIC ([1]; clinical isolate 530914)	MIC ([1]; clinical isolate 530946)	MIC ([1]; clinical isolate 530999)	MIC ([1]; clinical isolate 531581)	MIC ([1]; clinical isolate 531869)	MIC90 [1]	MIC [2, 3]	MIC [2, 4]	MIC [2, 5]	MIC [2, 6]	MIC [2, 7]	MIC [2, 8]
CCC(C)n1ncn(-c2ccc(N3CCN(c4ccc(OCC5COC(Cn6cncn6)(c6ccc(Cl)cc6Cl)O5)cc4)CC3)cc2)c1=O (centres unmarked) [ITZ, itraconazole]	> 4 µg/mL	> 4 µg/mL	> 4 µg/mL	> 4 µg/mL	> 4 µg/mL	> 4 µg/mL	> 4 µg/mL	> 4 µg/mL	> 4 µg/mL	> 4 µg/mL	> 4 µg/mL	> 4 µg/mL	> 4 µg/mL	0.016 µg/mL (≈ 0.0227 µM)	> 4 µg/mL	> 4 µg/mL	–
CC(=O)N1CCN(c2ccc(OCC3COC(Cn4ccnc4)(c4ccc(Cl)cc4Cl)O3)cc2)CC1 (centres unmarked) [KCZ, ketoconazole]	4 µg/mL (≈ 7.53 µM)	> 4 µg/mL	> 4 µg/mL	> 4 µg/mL	4 µg/mL (≈ 7.53 µM)	> 4 µg/mL	> 4 µg/mL	> 4 µg/mL	> 4 µg/mL	2 µg/mL (≈ 3.76 µM)	> 4 µg/mL	2 µg/mL (≈ 3.76 µM)	1 µg/mL (≈ 1.88 µM)	0.031 µg/mL (≈ 0.0583 µM)	2 µg/mL (≈ 3.76 µM)	0.59 µg/mL (≈ 1.11 µM)	0.031 to 2 µg/mL (≈ 0.0583 to 3.76 µM)

Now those with a lower MIC ([1]; clinical isolate 530129), led by results:

MIC ([1]; clinical isolate 530129)	MIC ([1]; clinical isolate 530142)	MIC ([1]; clinical isolate 530251)	MIC ([1]; clinical isolate 530621)	MIC ([1]; clinical isolate 530633)	MIC ([1]; clinical isolate 530914)	MIC ([1]; clinical isolate 530946)	MIC ([1]; clinical isolate 530999)	MIC ([1]; clinical isolate 531581)	MIC ([1]; clinical isolate 531869)	MIC90 [1]	MIC [2, 3]	MIC [2, 4]	MIC [2, 5]	MIC [2, 6]	MIC [2, 7]	MIC [2, 8]	SMILES
0.0039 µg/mL (≈ 0.0122 µM)	0.002 µg/mL (≈ 0.00625 µM)	0.0039 µg/mL (≈ 0.0122 µM)	0.0039 µg/mL (≈ 0.0122 µM)	0.0039 µg/mL (≈ 0.0122 µM)	0.0039 µg/mL (≈ 0.0122 µM)	0.0039 µg/mL (≈ 0.0122 µM)	0.002 µg/mL (≈ 0.00625 µM)	0.0039 µg/mL (≈ 0.0122 µM)	0.002 µg/mL (≈ 0.00625 µM)	0.0039 µg/mL (≈ 0.0122 µM)	0.002 µg/mL (≈ 0.00625 µM)	0.00098 µg/mL (≈ 0.00306 µM)	0.00024 µg/mL (≈ 0.00075 µM)	0.002 µg/mL (≈ 0.00625 µM)	0.00098 µg/mL (≈ 0.00306 µM)	0.00024 to 0.002 µg/mL (≈ 0.00075 to 0.00625 µM)	N#C/C(=C1/SCC(c2ccccc2Cl)S1)n1ccnc1 (centres unmarked) [LCZ, [4-(2-chlorophenyl)-1,3-dithioran-2-ylidene](1H-imidazol-1-yl)acetonitrile]
0.002 µg/mL (≈ 0.00565 µM)	0.002 µg/mL (≈ 0.00565 µM)	0.002 µg/mL (≈ 0.00565 µM)	0.002 µg/mL (≈ 0.00565 µM)	0.002 µg/mL (≈ 0.00565 µM)	0.002 µg/mL (≈ 0.00565 µM)	0.002 µg/mL (≈ 0.00565 µM)	0.002 µg/mL (≈ 0.00565 µM)	0.002 µg/mL (≈ 0.00565 µM)	0.00098 µg/mL (≈ 0.00277 µM)	0.002 µg/mL (≈ 0.00565 µM)	0.00098 µg/mL (≈ 0.00277 µM)	0.00098 µg/mL (≈ 0.00277 µM)	0.00012 µg/mL (≈ 0.000339 µM)	0.00098 µg/mL (≈ 0.00277 µM)	0.00058 µg/mL (≈ 0.00164 µM)	0.00012 to 0.00098 µg/mL (≈ 0.000339 to 0.00277 µM)	N#C/C(=C1/SC[C@@H](c2ccc(Cl)cc2Cl)S1)n1ccnc1 [LLCZ, (−)-(E)-[(4R)-(2,4-dichlorophenyl)-1,3-dithioran-2-ylidene](1H-imidazol-1-yl)acetonitrile]
1 µg/mL (≈ 2.4 µM)	1 µg/mL (≈ 2.4 µM)	1 µg/mL (≈ 2.4 µM)	1 µg/mL (≈ 2.4 µM)	0.5 µg/mL (≈ 1.2 µM)	1 µg/mL (≈ 2.4 µM)	1 µg/mL (≈ 2.4 µM)	0.5 µg/mL (≈ 1.2 µM)	0.5 µg/mL (≈ 1.2 µM)	0.5 µg/mL (≈ 1.2 µM)	1 µg/mL (≈ 2.4 µM)	0.5 µg/mL (≈ 1.2 µM)	0.5 µg/mL (≈ 1.2 µM)	0.063 µg/mL (≈ 0.151 µM)	0.5 µg/mL (≈ 1.2 µM)	0.3 µg/mL (≈ 0.721 µM)	0.063 to 0.5 µg/mL (≈ 0.151 to 1.2 µM)	Clc1ccc(COC(Cn2ccnc2)c2ccc(Cl)cc2Cl)c(Cl)c1 (centres unmarked) [MCZ, miconazole]
0.5 µg/mL (≈ 1.72 µM)	0.25 µg/mL (≈ 0.858 µM)	0.5 µg/mL (≈ 1.72 µM)	0.5 µg/mL (≈ 1.72 µM)	0.25 µg/mL (≈ 0.858 µM)	0.25 µg/mL (≈ 0.858 µM)	1 µg/mL (≈ 3.43 µM)	0.5 µg/mL (≈ 1.72 µM)	0.5 µg/mL (≈ 1.72 µM)	0.5 µg/mL (≈ 1.72 µM)	0.5 µg/mL (≈ 1.72 µM)	0.25 µg/mL (≈ 0.858 µM)	0.5 µg/mL (≈ 1.72 µM)	1 µg/mL (≈ 3.43 µM)	0.25 µg/mL (≈ 0.858 µM)	0.42 µg/mL (≈ 1.44 µM)	0.25 to 1 µg/mL (≈ 0.858 to 3.43 µM)	CN(C/C=C/C#CC(C)(C)C)Cc1cccc2ccccc12 [TBF, terbinafine]

Reference: patent publication US9040573B2, “Anti-fungal agent” (Nihon Nohyaku Co., Ltd., priority 2011, dated 2015)
